Here are results for 6 compounds from PubChem BioAssay (NCI).

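Method: 48-hour compound exposure of cells in 96-well plates, five concentrations, linear interpolation of endpoints. GI50 = concentration required for 50% inhibition of growth. TGI: total growth inhibition.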

Test systems include NCI-H226 lung; SK-MEL-2 melanoma; SW-620 colon; COLO 205 colon; OVCAR-4 ovarian; MOLT-4 leukemia; CAKI-1 renal; UACC-257 melanoma; UO-31 renal; LOX IMVI melanoma; OVCAR-5 ovarian; SN12C renal; HT29 colon; SF-539 CNS; SK-MEL-28 melanoma; K-562 leukemia.
Holding throughout (assay): NCI tumour cell line growth inhibition, 48 h

For the compound `COC1OC2COC(c3ccccc3)OC2C(O)C1OC(=S)c1ccccc1` (stereo not given), the TGI was more than 100 µM in the experiment on NCI-H226 lung; more than 100 µM with SK-MEL-2 melanoma; more than 100 µM with SW-620 colon; 33 µM with COLO 205 colon; more than 100 µM in the experiment on OVCAR-4 ovarian; more than 100 µM in the experiment with MOLT-4 leukemia. Besides, the TGI was 80.4 µM in the experiment on CAKI-1 renal; more than 100 µM in the experiment on UACC-257 melanoma; more than 100 µM in the experiment on UO-31 renal; 21.4 µM in the experiment on LOX IMVI melanoma; more than 100 µM in the experiment with OVCAR-5 ovarian; 48.4 µM in the experiment on SN12C renal. Further, the TGI with HT29 colon is 47.9 µM; in the experiment on SF-539 CNS, 87.1 µM; in the experiment with SK-MEL-28 melanoma it was more than 100 µM; in the experiment on K-562 leukemia, more than 100 µM.
For the compound `OC(C#CCN1CCCC1)(c1ccccc1)c1ccccc1Cl` (stereo not given), the TGI in the experiment on NCI-H226 lung was more than 100 µM; with SK-MEL-2 melanoma, 61.5 µM; in the experiment with SW-620 colon it was 39.3 µM; in the experiment on COLO 205 colon, 25 µM; with OVCAR-4 ovarian, 80.7 µM; in the experiment on MOLT-4 leukemia it was 91.2 µM. For the same compound, the TGI is 93.6 µM in the experiment on CAKI-1 renal; 40.3 µM in the experiment on UACC-257 melanoma; more than 100 µM in the experiment on UO-31 renal; 33.4 µM in the experiment on LOX IMVI melanoma; more than 100 µM in the experiment on OVCAR-5 ovarian; more than 100 µM with SN12C renal. Also, the TGI was 30.1 µM with HT29 colon, 52.4 µM in the experiment with SF-539 CNS, 32.2 µM in the experiment on SK-MEL-28 melanoma and more than 100 µM in the experiment with K-562 leukemia.
Take `O=C1N(Cc2ccccc2)C2CSCC2N1Cc1ccccc1` (stereo not given): the TGI is 64.6 µM in the experiment on NCI-H226 lung; 46.4 µM in the experiment with SK-MEL-2 melanoma; more than 100 µM in the experiment on SW-620 colon; 32.8 µM in the experiment on COLO 205 colon; more than 100 µM with OVCAR-4 ovarian; 97 µM with MOLT-4 leukemia. Further, the TGI was more than 100 µM with CAKI-1 renal; 69.3 µM with UACC-257 melanoma; 93.5 µM in the experiment on UO-31 renal; 93.1 µM in the experiment on LOX IMVI melanoma; more than 100 µM with OVCAR-5 ovarian; more than 100 µM in the experiment on SN12C renal. Besides, the TGI in the experiment with HT29 colon was 38.1 µM; in the experiment on SF-539 CNS, 76 µM; in the experiment on SK-MEL-28 melanoma it was more than 100 µM; with K-562 leukemia, more than 100 µM.
As for `COc1ccc2oc(=N)c(C(=O)Nc3ccccc3)cc2c1`, the TGI in the experiment on NCI-H226 lung is more than 100 µM; with SK-MEL-2 melanoma, 37.4 µM; in the experiment on SW-620 colon it was 80.9 µM; with COLO 205 colon, more than 100 µM; with OVCAR-4 ovarian, more than 100 µM; with MOLT-4 leukemia it was more than 100 µM. The TGI with CAKI-1 renal, with UACC-257 melanoma, in the experiment with UO-31 renal, in the experiment on LOX IMVI melanoma, with OVCAR-5 ovarian and in the experiment on SN12C renal was more than 100 µM each time. In addition, the TGI with HT29 colon was more than 100 µM; in the experiment with SF-539 CNS, 51.6 µM; in the experiment with SK-MEL-28 melanoma it was more than 100 µM; in the experiment on K-562 leukemia it was 4.19 µM.
In the case of `C/C1=C\[C@H](C)C[C@H](C)OC(=O)[C@H](C)NC(=O)[C@@H](Cc2ccc(O)c(Br)c2)N(C)C(=O)[C@H](C)NC(=O)[C@@H](C)C1`, the TGI with NCI-H226 lung was 0.787 µM; in the experiment on SK-MEL-2 melanoma, 9.34 µM; in the experiment on SW-620 colon, more than 25 µM; in the experiment with COLO 205 colon, more than 25 µM; in the experiment with OVCAR-4 ovarian, 1.92 µM; in the experiment on MOLT-4 leukemia, more than 19.5 µM. The TGI in the experiment with CAKI-1 renal is 0.0274 µM; in the experiment with UACC-257 melanoma it was 14.8 µM; with UO-31 renal, 0.152 µM; in the experiment on LOX IMVI melanoma, 0.394 µM; in the experiment with OVCAR-5 ovarian it was more than 25 µM; in the experiment with SN12C renal, more than 25 µM. In addition, the TGI is more than 3.13 µM in the experiment on HT29 colon, 0.117 µM in the experiment with SF-539 CNS, more than 10.6 µM in the experiment on SK-MEL-28 melanoma and more than 25 µM in the experiment on K-562 leukemia.
`C=CC1(C)CC(=O)C2(O)C(C)(O1)C(OC(C)=O)C(O)C1C(C)(C)CCC(O)C12C` (stereo not given): the TGI with NCI-H226 lung was more than 72.8 µM; with SK-MEL-2 melanoma it was more than 150 µM; in the experiment with SW-620 colon it was more than 150 µM; with COLO 205 colon it was more than 122 µM; in the experiment with OVCAR-4 ovarian, more than 122 µM; with MOLT-4 leukemia it was more than 150 µM. Also, the TGI was 58.8 µM in the experiment with CAKI-1 renal; more than 150 µM in the experiment on UACC-257 melanoma; more than 137 µM in the experiment on UO-31 renal; more than 150 µM in the experiment on LOX IMVI melanoma; 45.5 µM with OVCAR-5 ovarian; more than 102 µM in the experiment with SN12C renal. In addition, the TGI in the experiment with HT29 colon, with SF-539 CNS, in the experiment with SK-MEL-28 melanoma and with K-562 leukemia was more than 150 µM in each case. For the same compound, the GI50 in the experiment with MOLT-4 leukemia was more than 91.2 µM; in the experiment with CAKI-1 renal it was more than 55.2 µM; with UO-31 renal it was more than 72.5 µM; in the experiment on SN12C renal, more than 49 µM.
